Measured values published in ChEMBL document CHEMBL5233256, “Flavaglines as natural products targeting eIF4A and prohibitins: From traditional Chinese medicine to antiviral activity against coronaviruses” (Eur J Med Chem, 2020).

Columns and labels:
[1] = system: Poliovirus 1; assay: Antiviral activity against human poliovirus 1 infected in human MRC5 cells incubated for 1 hr by crystal violet staining based plaque assay; assay type: functional, organism-based; details: Enterovirus C, MRC5, 1 h
[2] = system: Middle East respiratory syndrome-related coronavirus; assay: Antiviral activity against MERS-COV infected in human MRC5 cells incubated for 1 hr by crystal violet staining based plaque assay; assay type: functional, organism-based
[3] = system: Human coronavirus 229E; assay: Antiviral activity against hCoV-229E infected in human MRC5 cells incubated for 1 hr by crystal violet staining based plaque assay; assay type: functional, organism-based
[4] = system: SARS-CoV-2; assay: Antiviral activity against SARS-CoV-2 USA_WA1/2020 infected in African green monkey Vero E6 cells assessed as reduction in virus replication preincubated with cell for 2 hrs followed by viral infection for 1 hr and measured after 48 hrs by RT-qPCR method; assay type: functional; details: Severe acute respiratory syndrome coronavirus 2, USA_WA1/2020, Vero C1008; time 51 hrs
[5] = system: Hepatitis C virus; assay: Antiviral activity against HCV infected in human Huh-7.5.1 cells assessed as reduction in viral infection incubated for 48 hrs; assay type: functional, organism-based, Hepacivirus hominis; details: Huh-7.5.1, 48 h

COC(=O)[C@H]1[C@@H](O)[C@@]2(O)c3c(OC)cc(O[C@@H]4O[C@@H]([C@H](O)CO)CO[C@H]4OC)cc3O[C@@]2(c2ccc(OC)cc2)[C@@H]1c1ccccc1 [SILVESTROL]
EC50 [1]: 20 nM | EC50 ([2]; MRC5, 1 h): 1.3 nM | EC90 ([2]; MRC5, time 1 hrs): 27 nM | EC50 ([3]; MRC5, 1 h): 3 nM | EC90 ([3]; MRC5, time 1 hrs): 12 nM

COc1cc2c(c(OC)n1)[C@]1(O)[C@H](O)[C@H](CN(C)C)[C@@H](c3ccccc3)[C@]1(c1ccc(C#N)cc1)O2 [ZOTATIFIN]
IC90 [4]: 37 nM

COc1ccc([C@@]23Oc4cc(OC)cc(OC)c4[C@]2(O)c2nc4n(c(=O)c2[C@H]3c2ccccc2)CCC4)cc1
EC50 [5]: 0.04 nM

COc1ccc([C@@]23Oc4cc(OC)cc(OC)c4[C@]2(O)[C@H](O)[C@H](C(=O)N(C)C)[C@H]3c2ccccc2)cc1 [ROCAGLAMIDE]
EC50 [5]: 4 nM
